# Tested on: HeLa cells
# Test: γ-H2AX immunofluorescence staining (DNA damage)
# Type: cell-based
# Details: 10–25–50 µM, 24 h
# Method: HeLa cells (1 × 10^4/^mL) were seeded in 12-well cell culture plates, and after 24 h incubation, they were treated with the compound E at doses of 10–25–50 µM and incubated for 24 h. The cells were washed with PBS and fixed with 100% methanol at −20 °C overnight, which was followed by PBS washing three times for 10 min. The cells were treated with % 0.2 Triton X-100 on a shaker at room temperature for 5 min. It was washed with PBS, and 1% BSA-containing PBS was added and incubated with primary mouse monoclonal anti-γ-H2AX antibody (Cell Signalling Technology, MA, USA) at 37 °C for 1 h. The cells were washed with PBS three times for 5 min. Secondary goat anti-mouse Alexa-488-conjugated IgG (Invitrogen, CA, USA) was administrated and incubated at 37 °C for 20 min, which was followed by PBS washing three times for 4–5 min. One millilitre of 70% EtOH was added, and at +4 °C it was incubated for 5 min. One millilitre of 100% EtOH was added and, on a shaker, incubated at room temperature for 1–2 min. The nucleus was stained with DAPI. The images were recorded by Olympus Inverted fluorescence microscope (Olympus CKX 51, DP73, USA).
compound,measurement,value
"NS(=O)(=O)c1ccc(CCNCc2cc(Br)ccc2O)cc1 [Compound E, 4-(2-((5-bromo-2-hydroxybenzyl)amino)ethyl) benzenesulphonamide]",DNA damage (γ-H2AX level),induced DNA damage in a dose-dependent manner

# Reference: publication PMC8201173, “Inhibition of Carbonic Anhydrase IX Promotes Apoptosis through Intracellular pH Level Alterations in Cervical Cancer Cells” (International Journal of Molecular Sciences, 2021)
